# According to patent US8404650B2, “Methods of treating cancer with doxazolidine and prodrugs thereof” (priority 2005, dated 2013):
# Read-outs that look alike come from different tables or passages of the source.
# How the values were obtained:
# MCF-7 = test: Growth inhibition of MCF-7 sensitive breast cancer cells (colony formation, crystal violet); type: cell-based, human; conditions: for IC50: Homo sapiens
# Protocol: (§1) In vitro Activity. […] This cell suspension was dispensed in 200 μL aliquots (1000 cells/well) into the inside wells of 96-well tissue culture plates. Outside wells contained 200 μL of media. […] The medium was replaced with 90 μL of growth medium prior to addition of the drug. Doxaz was dissolved in DMSO at concentrations ranging from 50 μM to 1 mM. […] Serial dilutions (1:3 and 1:10) were made in sterile DMSO to yield seven solutions of decreasing drug concentration at 100× the respective working concentrations. […] Additionally, two lanes were treated with 10 μL of growth medium containing 10% sterile DMSO and one lane was treated with 90 μL of 1.5 M Tris HCl. […]
# Cell growth inhibition experiments initially focused on MCF-7, MCF-7/Adr, SK-HEP-1, and Hep G2 cancer cells as well as rat cardiomyocytes as a measure of cardiotoxicity and Vero cells (green monkey kidney cells) as an additional measure of normal cell toxicity.
# Activity of plasmin-activated prodrugs.
# (§2) A more thorough characterization of the growth inhibition of a variety of cancer cells as well as rat cardiomyocytes by Formula IV (aFK-PABC-Doxaz) was evaluated in comparison with inhibition of growth by Doxaz, Dox and aFK-PABC-Dox. Cells were treated with drug for 3 h and colony growth was measured at 3 to 5 days when cells reached about 80% confluence. […] The breast cancer cell lines represent the multi-drug resistant (MDR) phenotype with MCF-7/Adr cells and a cell line that is transfected with the gene for urokinase plasminogen activator (uPA), the primary enzyme responsible for cleavage of plasminogen to plasmin. Rat cardiomyocytes served as a model for comparison of drug cardiotoxicity.
# MCF-7/Adr cells = test: Drug uptake by MCF-7/Adr cells, flow cytometry of drug fluorescence; type: cell-based; conditions: for Drug uptake relative to Doxorubicin: MCF-7/Adr, 500 nM (equivalents), up to 3 h
# Protocol: Drug uptake was measured by flow cytometery. Cells were dissociated with trypsin/EDTA, counted, and suspended in growth media to a concentration of 1×10^5 cells/mL. This cell suspension was dispensed in 2.5 mL aliquots into 6-well tissue culture plates. Plates were then incubated for 24 h at 37° C. in a humidified atmosphere of 5% CO2 and 95% air. The growth media was replaced with 2 mL of fresh growth media prior to addition of the drug. Doxaz, DoxF, and Doxorubicin HCl were dissolved in DMSO each at a concentration of 50 μM. The concentration was then corrected by measuring the solution absorbance at 480 nm (ε=11,500 M^−1 cm^−1). Drug solution (20 μL) was added to an individual well and was incubated for 5 min, 15 min, 30 min, 1 h, 2 h or 3 h at 37° C. in a humidified atmosphere of 5% CO2 and 95% air. All drug treatments were performed so all treatment times would end simultaneously. After treatment, culture media was removed, cells washed once with 0.5 mL HBSS, washed once with 0.5 mL trypsin/EDTA, and 0.5 mL trypsin/EDTA was added and cells were incubated for 5 min. After all cells were trypsinized, cells were aspirated with 1.5 mL cold D-PBS (Dulbecco's phosphate buffered saline, no calcium or magnesium) and this solution was added to 3 mL of cold D-PBS (4.5 mL total D-PBS) in a conical vial. Cells were centrifuged at 200 g for 5 min, and D-PBS was decanted off. Cells were washed once more in 5 mL cold D-PBS, centrifuged at 200 g for 5 min and D-PBS was decanted off. […] Cells were analyzed with excitation at 488 nm (15 mW Ar ion laser), with emission monitored between 570 nm and 600 nm. Instrument settings were optimized for the cell line and held constant for all experiments; for the anthracycline fluorescence analysis, 10,000 cells were analyzed for each sample. The data are presented as the mean fluorescence for each condition.
# Uptake of pentyl PABC-Doxaz and Dox by multidrug resistant MCF-7/Adr breast cancer cells and SK-HEP-1 liver cancer cells in the presence of fetal bovine serum was determined by flow cytometry using drug fluorescence as a measure of drug in cells.
# DU-145 = test: Growth inhibition of DU-145 prostate cancer cells; type: cell-based; conditions: for IC50: Homo sapiens
# Protocol: as §1
# SHP-77 small cell lung cancer cells were also of interest because they express modest amounts of both enzymes. Inhibition of the growth of cardiomyocytes was used as a measure of cardiotoxicity, and inhibition of the growth of Vero cells, green monkey kidney cells, was again used as another measure of toxicity to normal cells.
# as §2, with “Cells were treated with drug for 3 h and colony growth was measured at 3 to 5 days when cells reached about 80% confluence.” left out
# cancer cells = test: Cancer cell growth inhibition, statements over several or unnamed cell lines; type: cell-based
# Protocol: In vitro Activity. […] This cell suspension was dispensed in 200 μL aliquots (1000 cells/well) into the inside wells of 96-well tissue culture plates. Outside wells contained 200 μL of media. […] The medium was replaced with 90 μL of growth medium prior to addition of the drug. Doxaz was dissolved in DMSO at concentrations ranging from 50 μM to 1 mM. […] Serial dilutions (1:3 and 1:10) were made in sterile DMSO to yield seven solutions of decreasing drug concentration at 100× the respective working concentrations. […] Additionally, two lanes were treated with 10 μL of growth medium containing 10% sterile DMSO and one lane was treated with 90 μL of 1.5 M Tris HCl. The cells were incubated at 37° C. for 3 h, at which time the drug solutions were replaced with 200 μL of fresh growth medium.
# as §2
# [1] = DU-145, read-out: IC50 DU-145, top line of the cell
# [2] = 24 h drug treatment, crystal violet
structure (smiles),measurement,setting,value
"COc1cccc2c1C(=O)c1c(O)c3c(c(O)c1C2=O)C[C@@](O)(C(=O)CO)C[C@@H]3OC1CC2C(OCN2CN2COC3C(C)OC(O[C@H]4C[C@](O)(C(=O)CO)Cc5c(O)c6c(c(O)c54)C(=O)c4c(OC)cccc4C6=O)CC32)C(C)O1 (stereo partly drawn) [DoxF, Doxoform, reference compound]",IC50,"MCF-7; MCF7, 3 h, read-out: IC50 MCF-7",2 nM
same,Drug uptake relative to Doxorubicin,MCF-7/Adr cells,significantly more
same,IC50,"DU-145; DU-145, 3 h, read-out: IC50 DU-145",3 nM
"COc1cccc2c1C(=O)c1c(O)c3c(c(O)c1C2=O)C[C@@](O)(C(=O)CO)C[C@@H]3O[C@H]1C[C@@H]2NCO[C@@H]2[C@H](C)O1 [Doxaz, Doxazolidine]",More toxic than Doxorubicin to multidrug-resistant cancer cells,cancer cells; variety of multidrug-resistant cancer cells,"500-10,000 fold"
same,IC50,"MCF-7; MCF7, 3 h, read-out: Growth inhibition IC50, MCF-7, 3 h",3.16 nM
same,IC50,"MCF-7; MCF7, read-out: IC50 MCF-7",3 ± 0.2 nM
same,Drug uptake relative to Doxorubicin,MCF-7/Adr cells,significantly more
same,IC50,"DU-145; DU-145, read-out: IC50 DU-145",4 ± 0.6 nM
"COc1cccc2c1C(=O)c1c(O)c3c(c(O)c1C2=O)C[C@@](O)(C(=O)CO)C[C@@H]3O[C@H]1C[C@H](N)[C@H](O)[C@H](C)O1 [Doxorubicin, reference compound]",Effect of added plasmin on activity,cancer cells; 0.01 unit/mL of plasmin,no effect
same,IC50,"MCF-7; MCF7, 3 h, read-out: Growth inhibition IC50, MCF-7, 3 h, 3 h drug treatment, crystal violet",316 nM
same,IC50,"MCF-7; MCF7, 3 h, read-out: IC50 MCF-7 + plasmin, + plasmin (15 μg/ml)",300 nM
same,IC50,"MCF-7; MCF7, 24 h, read-out: Growth inhibition IC50, MCF-7, 24 h, 24 h drug treatment, crystal violet",12.6 nM
same,IC50,"MCF-7; MCF7, read-out: IC50 MCF-7, 3 h drug treatment, growth at 5 days",200 ± 26 nM
same,IC50,"MCF-7; MCF7, read-out: IC50 MCF-7, no plasmin or aprotinin added",300 nM
same,IC50,"DU-145; DU-145, 24 h, read-out: Cell growth inhibition IC50, DU-145",31.6 nM
same,IC50,"DU-145; DU-145, read-out: IC50 DU-145",240 nM
same,IC50,DU-145; [1],300 nM
"COc1cccc2c1C(=O)c1c(O)c3c(c(O)c1C2=O)C[C@@](O)(C(=O)CO)C[C@@H]3O[C@H]1C[C@H]2[C@H](OCN2C(=O)OCc2ccc(NC(=O)[C@H](CCCCN)NC(=O)[C@H](Cc3ccccc3)NC(=O)[C@@H](C)N)cc2)[C@H](C)O1 [Formula IV, D-Ala-L-Phe-L-Lys-p-aminobenzyloxycarbonyl-Doxaz]",Increase of activity on addition of plasminogen,"cancer cells; 0.01 unit/mL plasminogen, on average",0.3 log
same,Growth inhibition better than aFK-PABA-Dox,"cancer cells; most of the cancer cells, 3 h treatment",≥ 0.5 log
same,IC50,cancer cells; read-out: Cancer cell growth inhibition IC50 in the presence of plasmin,5 nM
same,IC50,"MCF-7; MCF7, 3 h, read-out: IC50 MCF-7 + plasmin",5 nM
same,IC50,"MCF-7; MCF7, read-out: IC50 MCF-7",50 nM
same,IC50,"DU-145; DU-145, read-out: IC50 DU-145 + plasmin",6 nM
same,IC50,DU-145; [1],160 nM
"CCCCCOC(=O)Nc1ccc(COC(=O)N2COC3C(C)OC(OC4CC(O)(C(=O)CO)Cc5c(O)c6c(c(O)c54)C(=O)c4c(OC)cccc4C6=O)CC32)cc1 (stereo not drawn) [Pentyl PABC-Doxaz, Pentyl 4-(N-doxazolidinylcarbonyloxymethyl)phenylcarbamate]","Growth inhibition IC50, MCF-7, 24 h",MCF-7; [2],−5.6 ± 0.3 log of the molar concentration
same,"Uptake relative to Dox, MCF-7/Adr",MCF-7/Adr cells; in the presence of fetal bovine serum,taken up much better
same,"Cell growth inhibition IC50, DU-145",DU-145; [2],−6.7 ± 0.07 log of molar concentrations
